# Where two headings read alike, the source gives them in different places.
# Assays:
# [1] = system: sound-induced tonic seizures in DBA/2 mice; experiment: DBA2 mouse model: prevention of audiogenic seizures in DBA/2 mice; assay type: in vivo; design: concentration or dose not given beside the values; conditions: for DBA2 Mouse Model % Protect (1h): 1h after oral dosing; for DBA2 Mouse Model % Protect (2h): 2h after oral dosing
# Experimental: All procedures were carried out in compliance with the NIH Guide for the Care and Use of Laboratory Animals under a protocol approved by the Parke-Davis Animal Use Committee. Male DBA/2 mice, 3 to 4 weeks old, were obtained from Jackson Laboratories, Bar Harbour, Me. Immediately before anticonvulsant testing, mice were placed upon a wire mesh, 4 inches square suspended from a steel rod. The square was slowly inverted through 180 degrees and mice observed for 30 seconds. Any mouse falling from the wire mesh was scored as ataxic.
# Mice were placed into an enclosed acrylic plastic chamber (21 cm height, approximately 30 cm diameter) with a high-frequency speaker (4 cm diameter) in the center of the top lid. An audio signal generator (Protek model B-180) was used to produce a continuous sinusoidal tone that was swept linearly in frequency between 8 kHz and 16 kHz once each 10 msec. The average sound pressure level (SPL) during stimulation was approximately 100 dB at the floor of the chamber. Mice were placed within the chamber and allowed to acclimatize for 1 minute. DBA/2 mice in the vehicle-treated group responded to the sound stimulus (applied until tonic extension occurred, or for a maximum of 60 seconds) with a characteristic seizure sequence consisting of wild running followed by clonic seizures, and later by tonic extension, and finally by respiratory arrest and death in 80% or more of the mice. In vehicle-treated mice, the entire sequence of seizures to respiratory arrest lasts approximately 15 to 20 seconds.
# The incidence of all the seizure phases in the drug-treated and vehicle-treated mice was recorded, and the occurrence of tonic seizures were used for calculating anticonvulsant ED50 values by probit analysis. Mice were used only once for testing at each dose point. […] All drugs in the present study were dissolved in distilled water and given by oral gavage in a volume of 10 mL/kg of body weight. compounds that are insoluble will be suspended in 1% carboxymethocellulose. Doses are expressed as weight of the active drug moiety.
# [2] = system: carrageenan-induced thermal hyperalgesia in the rat; experiment: Pain model: carrageenan-induced thermal hyperalgesia in the rat (plantar test); assay type: in vivo; conditions: for Pain Model % MPE 1 h: 1 h after oral administration; for Pain Model % MPE 2h: 2 h after oral administration
# Experimental: Male Sprague-Dawley rats (180-250 g) were obtained from Bantin and Kingman, (Hull, U.K.). Animals were housed in groups of 6 to 10 under a 12 hour light/dark cycle (lights on at 7 hours, 0 minutes) with food and water ad libitum.
# Thermal hyperalgesia was assessed using the rat plantar test (Ugo Basile, Italy) following a modified method of Hargreaves, et al., 1988. Rats were habituated to the apparatus which consisted of three individual perspex boxes on an elevated glass table. A mobile radiant heat source located under the table was focused onto the desired paw and paw withdrawal latencies (PWL) recorded. PWL were taken 3 times for both hind paws of each animal, the mean of which represented baselines for right and left hind paws. At least 5 minutes were allowed between each PWL for an animal. The apparatus was calibrated to give a PWL of approximately 10 seconds. There was an automatic cutoff point of 20 seconds to prevent tissue damage. After baseline PWLs were determined, animals received an intraplantar injection of carrageenan (100 μL of 20 mg/mL) into the right hind paw. PWLs were reassessed following the same protocol as above 2-hour post-carrageenan (this time point represented the start of peak hyperalgesia) to ascertain that hyperalgesia had developed. Test compounds were administered orally (in a volume of 1 mL/kg) at 2.5 hours after carrageenan. PWLs were reassessed at various times after drug administration.
# [3] = target: T1, α2δ subunit derived from porcine brain tissue (Sus scrofa, UniProt A0A287BIN3); experiment: [3H]gabapentin radioligand binding assay (α2δ assay)
# T1 construct: the α2δ subunit derived from porcine brain tissue was used; from tissue; host or cells: porcine brain tissue
# T1 sequence (A0A287BIN3 25-1109): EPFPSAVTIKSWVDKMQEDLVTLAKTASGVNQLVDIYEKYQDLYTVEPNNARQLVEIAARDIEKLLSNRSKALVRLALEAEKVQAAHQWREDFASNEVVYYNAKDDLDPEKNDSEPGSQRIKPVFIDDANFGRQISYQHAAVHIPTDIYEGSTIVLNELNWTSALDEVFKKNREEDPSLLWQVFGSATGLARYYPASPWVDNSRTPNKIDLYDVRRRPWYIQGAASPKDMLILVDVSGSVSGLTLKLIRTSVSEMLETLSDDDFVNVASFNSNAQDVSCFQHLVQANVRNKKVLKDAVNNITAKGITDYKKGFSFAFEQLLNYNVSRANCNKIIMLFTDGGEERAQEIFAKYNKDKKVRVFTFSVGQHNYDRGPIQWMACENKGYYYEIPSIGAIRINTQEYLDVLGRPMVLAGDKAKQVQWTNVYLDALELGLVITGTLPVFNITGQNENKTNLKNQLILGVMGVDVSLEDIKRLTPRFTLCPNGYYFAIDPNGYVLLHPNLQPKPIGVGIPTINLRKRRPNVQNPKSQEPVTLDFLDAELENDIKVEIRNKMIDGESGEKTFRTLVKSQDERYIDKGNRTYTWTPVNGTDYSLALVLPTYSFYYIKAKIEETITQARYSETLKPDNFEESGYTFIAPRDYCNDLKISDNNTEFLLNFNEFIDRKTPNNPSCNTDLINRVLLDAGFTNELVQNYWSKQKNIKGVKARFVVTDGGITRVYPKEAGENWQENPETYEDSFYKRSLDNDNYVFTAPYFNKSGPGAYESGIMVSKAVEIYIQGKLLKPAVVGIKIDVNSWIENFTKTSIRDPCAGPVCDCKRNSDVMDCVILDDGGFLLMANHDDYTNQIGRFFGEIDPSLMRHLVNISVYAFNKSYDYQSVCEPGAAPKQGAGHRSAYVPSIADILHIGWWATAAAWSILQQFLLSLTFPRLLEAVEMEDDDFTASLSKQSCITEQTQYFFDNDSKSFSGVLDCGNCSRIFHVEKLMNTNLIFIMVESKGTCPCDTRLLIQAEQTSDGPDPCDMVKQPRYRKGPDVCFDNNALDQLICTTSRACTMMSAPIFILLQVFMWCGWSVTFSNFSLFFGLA
IC50 ([3]; read-out: α2δ Assay IC50) [nM],Structure (SMILES),DBA2 Mouse Model % Protect (1h) [1] [%],DBA2 Mouse Model % Protect (2h) [1] [%],Pain Model % MPE 1 h [2] [%],Pain Model % MPE 2h [2] [%],IC50 [3] [nM]
–,NCC(CC(=O)O)Cc1ccco1 (stereo not shown),0,20,61.6,24.9,421
831,NCC(CC(=O)O)Cc1ccsc1 (stereo not shown),40,60,–,–,–
2670,NCC(CC(=O)O)Cc1cccs1 (stereo not shown),20,40,31.9,18.1,–

# From patent US6710190B1, “3-heteroarylalkyl substituted gaba analogs” (Warner-Lambert Company, priority 1999, dated 2004)
